Experimental data as given in patent publication US20050272677A1, “Delivery of a substance to a pre-determined site” (priority 2002, published 2005).

Tests used:
[1] = Urinary excretion of MAG3 after subcutaneous or intravenous injection; conditions: free compound
Procedure: The effect of drug formulation on the rate of drug release in vivo was tested in the rat by external counting of radioactivity.
DOPC/DOPS (90:10, mol/mol) liposomes with or without the MscL-mutant G22C were used (protein-to-lipid ratio of 1:20, wt/wt).
Encapsulation of MAG3 in liposomes was performed by freezing/thawing three times followed by extrusion through a 400 nm filter. The free fraction of the compound was removed by G50 Sephadex column separation.
The normal liposomes were loaded with MAG3 in 0.9% NaCl and eluted on the G50 column with 25 mM HEPES pH 8, 150 mM NaCl.
Male Wistar rats were anaesthetized using iso-flurane O2/NO throughout the study. Liposome-encapsulated MAG3 in a 0.5 ml volume was injected subcutaneously (in the neck) and accumulation of radioactivity in the urinary bladder constantly monitored by external counting using a gamma-camera (window: 140 keV, 250 keV width, one minute time resolution). At the end of the study (after 40 minutes), a ten times higher dose of free MAG3 was administered subcutaneously or intravenously to measure the urinary excretion rates of those formulations.

[2] = molecular target: T1, MscL (Escherichia coli, UniProt P0A742); experiment: Release from heparin sulfate loaded liposomes with an applied electric field; conditions: liposome with calcein, negative potential
T1 construct: made in house; host or cells: E. coli PB104
T1 sequence (P0A742 2-136): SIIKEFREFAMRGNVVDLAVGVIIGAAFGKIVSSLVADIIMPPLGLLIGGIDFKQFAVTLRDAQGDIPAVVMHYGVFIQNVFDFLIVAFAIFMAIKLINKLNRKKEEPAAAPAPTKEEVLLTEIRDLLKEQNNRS
Procedure: In vitro release profiles of a model drug were determined. Liposomes, as in Example 1, with and without MscL-6His, were prepared in the presence of the dye, calcein and heparin sulfate, a natural polymer found in secretory granules. A liposome was inserted into the tip of a glass pipette with the application of suction. The pipette voltage relative to the bath was controlled by a current-to-voltage converter. The solution in both the bath and the pipette was buffered to 6.5 with histamine dichloride and phosphoric acid. An Axopatch 200B was used to apply voltages and to sample the currents at 2.5 ms intervals. Swelling was induced by the application of a negative potential. To measure the swelling, the isolated liposomes were imaged and analyzed as described (J. M. Fernandez, et al., 1991, Biophys. J. 59:1022-1027, and J. R. Monck, et al., 1991; Biophys. J. 59:39-47).

[3] = Urinary excretion of IOT after subcutaneous injection; format: in vivo, rat; conditions: conscious rats
Procedure: DOPC/DOPS (90:10, mol/mol) and DOPC/DOPE liposomes (70:30, mol/mol) liposomes were tested.
Male Wistar rats remained conscious throughout the study. To increase the time-resolution, the diuretic furosemide (10 mg/kg dose s.c) was given in the morning, seven hours before administration of the sample. Urine was collected automatically with a one hour resolution. The concentration of IOT in the urine was measured by HPLC.

[4] = Sol-gel phase transition temperature and photo-switching by CD spectroscopy; format: physicochemical
Procedure: (§1) In a typical gelation experiment, a carefully weighed amount of the dithienylcyclopentene derivative under investigation and 1 ml of the solvent are placed in a test tube, which is sealed and then heated until the compound is dissolved. The solution is allowed to cool to room temperature. […] The gelation process could be followed by UV-vis and CD spectroscopy as depicted in FIG. 58. At low concentrations (0.35 mM), compound D is dissolved in toluene. […] Increasing the concentration to 1.8 mM causes gelation of the solvent, which is accompanied by a change of the UV-visible spectrum, together with the appearance of a strong CD signal at 323 nm (FIG. 58, panels (a) and (c)). Similar changes in the UV-vis and CD spectrum are observed upon gelation of the 1.8 mM solution of D in toluene by cooling to a temperature below the sol-gel phase transition (from here on, referred to as gel(o)). From a plot of the increase of the CD signal versus the temperature, the sol-gel phase transition temperature of gel(o) was determined to be 29° C. for a 1.8 mM solution of D in toluene.
In a typical photo-switching experiment, a solution (1.8 mM) of Compound D in toluene was prepared by cooling from 70° C. to the desired temperature (typically between 30° C. and 60° C., i.e., above the gel-sol phase transition temperature of the open form of D) in a cuvette of 1 mm path length. This solution was then irradiated at λ1=313 nm to convert the ring-open form of Compound D to the ring-closed form. By using a 150 W Xe lamp and a 313 nm bandpass filter, the photo-stationary state (PSS) was reached, typically within 10 minutes, which consist of 60 mol % of the closed form and 40 mol % of the open form.

[5] = Gelation experiment (gel formation in solvents); format: physicochemical
Procedure: To obtain a gel or to thicken the solvent, the compound is mixed with the required solvent or a mixture of solvents in an amount between 0.01 and 50 wt. %, based on the weight of the composition. Typically, the dissolution of the components will be performed by heating (in some cases it may be helpful to homogenize the components, e.g., vortex) them together at temperatures of 20° C. to 200° C., preferably 50° C. to 150° C. Cooling these hot solutions to a preferred temperature in the range of −20° C. to 100° C., preferably 4° C. to 100° C. affords the gel or thickened solvent. […] In an alternative embodiment, the gelling agent is first dissolved in a polar or apolar solvent followed by the addition of another solvent or solvent mixture, thereby causing gelation to take place.
It will be understood that the use of the present gelling agents or thickeners to prepare a gel or to thicken a composition is also encompassed by the invention. As is well-known, gelling behavior of compounds or compositions is highly unpredictable. […] Preferably, the gelling phenomenon is thermoreversible.
as §1

[6] = Gelation in the presence of surfactants and polymeric micelles; format: physicochemical; design: key: G = gel; C = crystalline; G^a: ^a= not stable
[7] = Gelation in the presence of surfactants and polymeric micelles; format: physicochemical; design: key: g = gel; i = insoluble; p = precipitate; sol = soluble
[8] = Subcutaneous pH reduction by MES buffer; format: in vivo, rat; conditions: pH 6.1, 0.5 ml s.c.
Procedure: Male Wistar rats remained conscious throughout the study. The subcutaneous pH was constantly recorded using a micro-glass electrode. After stabilization of the pH, 0.5 ml MES buffer (pH 6.1) was injected approximately 3 mm from the pH electrode. The effect of different molarities (50, 100 and 250 mM) of the MES buffer on the time-course of pH reduction was tested.

[9] = In vivo delivery of radio-labeled myoglobin with Sunfish/co-lipid complexes
Procedure: The low molecular-weight protein myoglobin was chosen as the model protein, the molecular weight is 17.8 kDa and iso-electric point 7.3. To enable quantification of organ uptake of myoglobin, myoglobin was radio-labeled with ^125Iodine-tyramine-cellobiose that is retained within the cell in which it is internalized.
The complexation was performed by mixing 3.5 μg of myoglobin in Tricine buffer (pH 8.5) with 75 nmol liposomes consisting of Sunfish and co-lipid in a molar ratio of 1:1 in 5% glucose solution.
Study 2: For complexation, SF-30, in combination with cholesterol in a molar ratio of 1:1, was used. […]
Study 2: BALB/c mice were injected intravenously with ^125Iodine-tyramine-cellobiose-labeled myoglobin complexed with different PEGylated lipid formulations. The mice were sacrificed after 10, 30 or 120 minutes following injection and the body distribution of ^125Iodine was determined. […]
The organ uptake is expressed as the percentage of injected dose ^125Iodine (tyramine-cellobiose) radioactivity. […] The total percentage of radioactivity in the blood was determined by multiplying the percentage per milliliter blood by 0.073 times the body weight in grams, being the total blood volume of the mouse. To allow an accurate comparison, the ratio between radioactivity in total blood and reticuloendothelial system (RES=liver+spleen) was expressed. […]

[10] = molecular target: α-chymotrypsin (Bos taurus, UniProt P00766); experiment: Cleavage of prodrug-gelling agent conjugate by α-chymotrypsin in gel and solution; format: biochemical
Procedure: The prodrug has been mixed with several gelators (neutral: C3-Am-Meth-Am-CH2CH2OCH2CH2OH as well as ionizable: DBC and C3-Am-Meth-OH) and stabile gels were obtained (0.25 wt % of the prodrug and 0.5 wt % of the gelator). […] This difference could be observed with the naked eye: after 20 minutes, the solution containing the prodrug turned bright yellow (due to the release of nitroaniline, whereas the gel containing the prodrug turned slightly yellow only after 20 hours.

[11] = molecular target: MscL-mutant G22C (Escherichia coli, UniProt P0A742, G22C); conditions: DOPC:DOPS (9:1) liposomes, 1 mM MTSET
Procedure: DOPC:DOPS (9:1 mol/mol) liposomes containing the G22C MscL were prepared as described previously. […] The labeled insulin was encapsulated by three freeze-thaw cycles, followed by extrusion through a 400 nm polycarbonate membrane.
Samples were taken at different time points and triton was added as a control for maximum fluorescence (100%). Samples were filtered over a 450 nm Cellulose Nitrate filter (Schleicher & Schuell BA85). The filtrate of 2 ml was retained and the fluorescence of 200 μl of each filtrate was monitored in a f1600 platereader (Bio-Tek). All experiments were performed in triplo.

[12] = molecular target: MscL (Escherichia coli, UniProt P0A742, G22C); format: biochemical, E. coli; design: made in house; host or cells: E. coli PB104; conditions: DOPC:DOPS (90:10) liposomes, 1 mM MTSET
Procedure: Results Overexpression and Purification of the MscL Channel Protein
Samples were prepared and calcein efflux was monitored as described elsewhere in Example 1.
300 μl of detergent-treated liposomes were gently mixed with 240 μl of 0.25 mg/ml purified MscL-mutant G22C in elution buffer containing 0.2% Triton X-100. The mixture was incubated at 60° C. for 45 minutes, followed by the addition of an equal volume (540 μl) of calcein-loading buffer, containing 200 mM calcein, 25 mM Tris, 1 mM EDTA, pH 8.0. After addition of 20 mg of Triton X-100-absorbing Bio-Beads SM-2, the mixture was gently agitated for one hour at room temperature. Subsequently, 80 mg Bio-Beads were added and incubated at 4° C. overnight under mild agitation. Samples were prepared for calcein efflux assay as described elsewhere.

[13] = system: pB104 strain (MscL null E. coli); experiment: MTSET shock assay on agar plates with IPTG; format: cell-based; design: Growth −MTSET-shock: key to the marks not given beside the values
Procedure: The constructs of the G20C^Ll, V21C^Ll and G22C^Ec MscL-6His mutants were constructed using standard molecular biology techniques. The mutants were tested in pB104 strain (MscL null E. coli) by a MTSET shock assay on agar plates with IPTG (A. F. Batiza, et al., 2002, PNAS, 99:5643-5648).

mertiatide [MAG3]
time to 50% urinary excretion ([1]; intravenous): 3 min
time to 50% urinary excretion ([1]; subcutaneous): > 12 min

heparin sulfate
swelling on applied voltage [2]: swelled instantaneously and predictably with the application of a negative voltage

CNC(=O)c1c(I)c(NC(C)=O)c(I)c(C(=O)O)c1I [IOT, Iodo-thalamate]
urinary excretion of IOT after subcutaneous injection [3]: completed in the first couple of hours after injection

Cc1sc(C(=O)N[C@H](C)c2ccccc2)cc1C1=C(c2cc(C(=O)N[C@H](C)c3ccccc3)sc2C)CCC1 [Compound D, 1,2-Bis(2′-methyl-5′-{(((R)-1-phenylethyl)amino)carbonyl}thien-3′-yl)cyclopentene]
sol-gel phase transition temperature of gel(c,I) ([4]; 1.8 mM in toluene, after irradiation at 313 nm (PSS)): 62 °C
sol-gel phase transition temperature of gel(o) ([4]; 1.8 mM in toluene, open form): 29 °C
increase of thermal stability compared to gel(o) ([4]; gel(c,I)): more than 30 °C
solvents gelated [5]: cyclohexane, 1-phenyloctane, toluene, n-butylether, benzene, tetralin

O=C(N[C@@H](CSSC[C@H](NC(=O)c1ccccc1)C(=O)O)C(=O)O)c1ccccc1 [DBC, dibenzoyl-L-cystine, reference compound]
Gelation properties ([6]; CTAB < CMC, * pH reversible gelation): G
Gelation properties ([6]; CTAB < CMC, ** pH reversible then thermoreversible gelation): G
Gelation properties ([6]; CTAB > CMC, * pH reversible gelation): G
Gelation properties ([6]; CTAB > CMC, ** pH reversible then thermoreversible gelation): G
Gelation properties ([6]; Lactose der. < CMC, * pH reversible gelation): G
Gelation properties ([6]; Lactose der. < CMC, ** pH reversible then thermoreversible gelation): G
Gelation properties ([6]; Lactose der. > CMC, * pH reversible gelation): G
Gelation properties ([6]; Lactose der. > CMC, ** pH reversible then thermoreversible gelation): G
Gelation properties ([6]; Nonionic (Lactose der.) < CMC): G
Gelation properties ([6]; Nonionic (Lactose der.) > CMC): G
Gelation properties ([6]; Pluronic P 105, 100 mg · ml^−1): g^a
Gelation properties ([6]; SDS < CMC, * pH reversible gelation): G
Gelation properties ([6]; SDS < CMC, ** pH reversible then thermoreversible gelation): G
Gelation properties ([6]; SDS > CMC, * pH reversible gelation): G
Gelation properties ([6]; SDS > CMC, ** pH reversible then thermoreversible gelation): G
Gelation properties ([6]; anionic (SDS) < CMC): G
Gelation properties ([6]; anionic (SDS) > CMC): G
Gelation properties ([6]; cationic (CTAB) < CMC): G
Gelation properties ([6]; cationic (CTAB) > CMC): C
response of gel to reducing agent (1 wt % gel, tris-(2-carboxy ethyl)phosphine): gel-to-sol transition
gelation by pH decrease through D-gluconic acid formation (D-glucose, glucose oxidase, catalase, NaHCO3, after three days): completely gelified
Gelation properties ([7]; Pluronic P 105, 5 mg · ml^−1): g
Gelation properties ([7]; Pluronic P 105, 5 mg · ml^−1, * pH reversible gelation): g
Gelation properties ([7]; Pluronic P 105, 5 mg · ml^−1, ** pH reversible then thermoreversible gelation): g
Gelation properties ([7]; Pluronic P 105, 100 mg · ml^−1, * pH reversible gelation): g
Gelation properties ([7]; Pluronic P 105, 100 mg · ml^−1, ** pH reversible then thermoreversible gelation): g

O=S(=O)(O)CCN1CCOCC1 [MES]
time for subcutaneous pH to return to pH 7.4 ([8]; 50 mM): ten
time for subcutaneous pH to return to pH 7.4 ([8]; 100 mM): ten
time pH remained below pH 6.5 ([8]; 250 mM): more than 30 minutes

1-(polyethyleneglycol5000-ω-methylether)-4-(10′-cis-nonadecenyl)pyridinium Bromide [SF-79]
blood/RES ratio ([9]; 30 minutes after administration, complex containing 20% SF-79): one
circulation time / radioactivity in the blood ([9]; 120 minutes after injection, PEGylated complexes): the highest amount of radioactivity in the blood

CHex(AmEtOEtOH)2(AmPhe-pNA) [compound 16]
time until gel turned slightly yellow (release of nitroaniline) ([10]; 0.25 wt % prodrug in mixed gel, 0.5 wt % gelator): 20 h
time until solution turned bright yellow (release of nitroaniline) ([10]; prodrug in solution layered with α-chymotrypsin): 20 min

B1: G22C E. coli (protein, UniProt P0A742 1-136, looked up, variant G22C)
Large-conductance …: MSIIKEFREFAMRGNVVDLAVCVIIGAAFGKIVSSLVADIIMPPLGLLIGGIDFKQFAVTLRDAQGDIPAVVMHYGVFIQNVFDFLIVAFAIFMAIKLINKLNRKKEEPAAAPAPTKEEVLLTEIRDLLKEQNNRS
FITC insulin efflux [11]: release of FITC insulin through MscL-mutant G22C upon activation with 1 mM MTSET
encapsulated calcein released [12]: 80%
time in which half of the MscL-mediated efflux occurs [12]: seven
Growth after +MTSET-shock [13]: −
Growth −MTSET-shock [13]: ++++
